Where two headings read alike, the source gives them in different places.
How the values were obtained:
[1] = test system: CGMMV; conditions: watermelon seeds; vacuum infiltration 0.2% solution, 40 minutes, sinking fraction; 2000 seeds
[2] = test system: CGMMV
Method: In this case, cucumber seeds have been obtained from a commercial seed lot, naturally infected by CGMMV in the production field.
The seeds were disinfected by standard method and by vacuum infiltration method. In this case, vacuum is applied at maximal pressure of 975-985 mbar from the beginning. […] The vacuum cycles continue until floating seeds are no longer sinking. The floating seeds are then removed and discarded. This process takes 15-20 minutes.
In this case two chemicals were used.
We also tested the effect of different concentration of Na-Dichloroisocyanurate applied by vacuum infiltration on CGMMV and germination (table II) treatment E is untreated control; treatment F is vacuum infiltration of Na-Dichloroisocyanurate 0.75%; treatment G is vacuum infiltration of Na-Dichloroisocyanurate 1.5% and treatment H is vacuum infiltration of Na-Dich loroisocyanurate 2.0%.
CGMMV was tested by ELISA assay according to method 7-026 of the international rules for seed testing annex to chapter 7: seed health testing methods; International Seed Testing Association, Zurich, Switzerland, 2010.

[3] = test system: Acidovorax citrulli; conditions: for BFB by PCR method: melon, 1.0% solution, 30 vacuum cycles, sinking fraction, 5000 seeds
Method: The process: 10 kg of seed are added to 45 liters of 1% or 2% Na-Dichloroisocyanurate. The seeds are mixed in the solution for 30 minutes and then washed in running water for 10 minutes and then dried to the original water content.
Three batches of 1 kilograms of this seed lot were put in a 10 liter glass vessel together with 3.0 liters of disinfecting solution comprising of Na-Dichloroisocyanurate at 1.0%. Thirty cycles of vacuum/de-vacuum (each cycle having a duration of 1 to 1.5 minutes) were applied with three different level: (i) level A: full vacuum up to 975-985, (ii) level B: medium level of 740-816 mbar, and (iii) level C: low level of 576-667 mbar. After 40 minutes (i.e. after achieving the 30 cycles of vacuum/de-vacuum) the floating fractions were discarded and the sinking fractions were collected, washed for 40 minutes and dried.
The standard protocol can be obtained from the National Seed Health System, a program authorized by USDA-APHIS and administered by the Iowa State University Seed Science Center to accredit both private and public entities to perform certain activities needed to support the issuance of Federal phytosanitary certificates for the international movement of seed. See page 69 of the May 2014 edition of the “Vegetable Crop Method-Reference Manual B” National Seed Health System available at http://www.seedhealth.org/files/pdfVegetable_Crops.pdf.

[4] = test system: CGMMV; conditions: 1.33% solution, VI disinfection; for Seed health lab results, ELISA average count: cut-off 0.130, untreated 0.841
Method: In this case, a commercial cucumber seed lot (2 kg) naturally infected by CGMMV was treated. The infected seeds were put into a reactor containing 20 liters of Na-Dichloroisocyanurate at 1.33%. The vacuum/de-vacuum cycles (i.e. vacuum infiltration) were applied gradually starting at 500 mbar and increased by 50 mbar each cycle up to the maximum of 985 mbar. Then we continued vacuum/de-vacuum cycles at maximum vacuum pressure of 985 mbar for a total of 30 cycles. […] Both fractions were separately collected. This process took 45 minutes. CGMMV was tested by ELISA assay according to method 7-026 of the international rules for seed testing annex to chapter 7: seed health testing methods; International Seed Testing Association, Zurich, Switzerland, 2010.

[5] = test system: Acidovorax citrulli; conditions: melon seeds
Excerpt: (§1) The vacuum cycles continue until floating seeds are no longer sinking. The floating seeds are then removed and discarded.
The standard protocol can be obtained from the National Seed Health System, a program authorized by USDA-APHIS and administered by the Iowa State University Seed Science Center to accredit both private and public entities to perform certain activities needed to support the issuance of Federal phytosanitary certificates for the international movement of seed.

[6] = test system: cucumber seeds
Method: CGMMV was tested by ELISA assay according to method 7-026 of the international rules for seed testing annex to chapter 7: seed health testing methods; International Seed Testing Association, Zurich, Switzerland, 2010. The germination test was performed on petri dishes (TOP) at 24 C incubator and root protrusion was counted at 4 days after seeding (TOP at 4 d).

[7] = test system: cucumber seeds; remark: listed apart in the source
Method: The germination test was performed according to Annex to chapter 5, International Rules for Seed Testing, International Seed Testing Association, Zurich, Switzerland, 1996.

[8] = test system: Acidovorax citrulli; conditions: watermelon seeds
Excerpt: as §1

[9] = test system: cucumber seeds; conditions: 1.33% solution, VI disinfection, untreated 97
Method: The germination test was performed on petri dishes (TOP) at 24 C incubator and root protrusion was counted at 4 days after seeding (TOP at 4 d).

SMILES: O=c1nc([O-])n(Cl)c(=O)n1Cl.[Na+] [Na-Dichloroisocyanurate]
- CGMMV by ELISA assay [1]: negative
- ELISA assay result (rate of extinction at A405) ([2]; Na-Dichloroisocyanurate 0.4%, standard disinfection, negative control 0.13): 0.45
- ELISA assay result (rate of extinction at A405) ([2]; Na-Dichloroisocyanurate 0.4%, vacuum infiltration, negative control 0.13): 0.25
- ELISA assay result (rate of extinction at A405) ([2]; Na-Dichloroisocyanurate 0.75%, vacuum infiltration, untreated control 0.72, negative control 0.13): 0.17
- ELISA assay result (rate of extinction at A405) ([2]; Na-Dichloroisocyanurate 1.5%, vacuum infiltration, untreated control 0.72, negative control 0.13): 0.13
- ELISA assay result (rate of extinction at A405) ([2]; Na-Dichloroisocyanurate 2.0%, vacuum infiltration, untreated control 0.72, negative control 0.13): 0.16
- BFB infection after standard disinfection ([3]; melon seeds, disinfected twice by standard protocol of example 5 (1% or 2%, 30 minutes)): still found to be BFB infected
- BFB by PCR method ([3]; level A full vacuum up to 975-985): negative
- BFB by PCR method ([3]; level B 740-816 mbar): negative
- BFB by PCR method ([3]; level C 576-667 mbar): negative
- Remarks (seed health) ([4]; floating fraction (5%)): Contami-
- Seed health lab results, Positive/total replicates ([4]; floating fraction (5%)): 9/10
- Seed health lab results, ELISA average count ([4]; floating fraction (5%)): 0.543
- Remarks (seed health) ([4]; sinking fraction (95%)): Clean
- Seed health lab results, Positive/total replicates ([4]; sinking fraction (95%)): 0/30
- Seed health lab results, ELISA average count ([4]; sinking fraction (95%)): 0.081
- BFB infection after standard disinfection ([5]; disinfected twice by standard protocol, 1% and 2%, 10 min): still heavily infested
- BFB by sweat-box assay ([5]; vacuum infiltration, 0.5% solution, floating fraction, 10,000 seeds): positive
- BFB health test (PCR, seedling grow-out, sweat box) ([5]; vacuum infiltration, 0.5% solution, sinking fraction, 40,000 seeds tested): None of the seeds was found infected
- % Germination TOP at 4 d ([6]; seed lot A, VI disinfection 1.5%, heavy fraction): 100%
- % Germination TOP at 4 d ([6]; seed lot A, standard disinfection 2.5%): 100%
- % Germination TOP at 4 d ([6]; seed lot B, VI disinfection 1.5%, heavy fraction): 100%
- % Germination TOP at 4 d ([6]; seed lot B, standard disinfection 2.5%): 100%
- Germination % ([7]; Na-Dichloroisocyanurate 0.4%, standard disinfection): 96%
- Germination % ([7]; Na-Dichloroisocyanurate 0.4%, vacuum infiltration): 100%
- Germination % ([7]; Na-Dichloroisocyanurate 0.75%, vacuum infiltration): 100%
- Germination % ([7]; Na-Dichloroisocyanurate 1.5%, vacuum infiltration): 100%
- Germination % ([7]; Na-Dichloroisocyanurate 2.0%, vacuum infiltration): 100%
- BFB infection after standard disinfection ([8]; standard disinfection process, 1.0% Na-Dichloroisocyanurate): still infected
- BFB by sweat box assay ([8]; vacuum infiltration, 0.2% solution, sinking fraction, 4200 seeds tested): negative
- % Germination TOP at 4 d ([9]; floating fraction (5%)): 62%
- % Germination TOP at 4 d ([9]; sinking fraction (95%)): 94%

— patent publication US12035716B2, “Treatment for seeds disinfection” (VILMORIN & CIE, priority 2013, dated 2024)
